Assay results as given in patent US5300304A, “Pulsatile once-a-day delivery systems for minocycline” (priority 1992, dated 1994).
Read-outs that look alike come from different tables or passages of the source.

Assays:
[1] = taken without food; cited from earlier work
[2] = test system: gram-negative and gram-positive bacteria; settings: PDR 43rd Ed.; cited from earlier work

With `CN(C)c1ccc(O)c2c1C[C@H]1C[C@H]3[C@H](N(C)C)C(=O)C(C(N)=O)=C(O)[C@@]3(O)C(=O)C1=C2O` [minocycline, 7-dimethylamino-6-deoxy-6-demethyltetracycline] the “bioavailability of minocycline in the gastrointestinal tract” value (from here on “bioavailability of minocycline”) (duodenum, based upon 100 percent absorption in the stomach) was 106%, the “absorption in the lower gastrointestinal tract” value (human patients, intubation) was “reduced absorption” and the “bioavailability of minocycline” value (ileum, based upon 100 percent absorption in the stomach) was 58%. For the same compound, the “bioavailability of minocycline” value (jejunum, based upon 100 percent absorption in the stomach) was 80%, the “bioavailability of minocycline” value (stomach, reference (100 percent absorption in the stomach)) was 100% and the half life [1] was “approximately 10 hours”. For the same compound, the “organisms susceptible to minocycline therapy” value [2] was “wide range of gram-negative and gram-positive bacteria”.
